US4250255A, “Assay method for isoenzyme activity” (Eastman Kodak Company, priority 1977, dated 1981)
Structures can show the parent of a compound that is named as a salt. Where two headings read alike, the source gives them in different places.

Columns and labels:
[1] = system: isoenzymes of creatinine phosphokinase (CPK); assay: Conventional coupled CPK assay (hexokinase, glucose-6-phosphate dehydrogenase); assay type: biochemical; settings: conventional assay with coupled reactions, hexokinase and glucose-6-phosphate dehydrogenase
Description: Of course, the particular amphiphile used and the concentration at which it is used will depend upon the particular isoenzyme being assayed. Not every amphiphile will have a discriminatory effect on the activity of isoenzymes in each isoenzyme system.

LD1 [2] = assay: LDH activity assay with amphiphile, LDH isoenzymes; assay type: biochemical, porcine; settings: about 10 mM CTAB; FIG. 5
Experimental: (§1) 3. Beef heart LDH (Sigma Chemical Co., Type III), rabbit muscle LDH (Sigma Chemical Co., Type V) and porcine LDH, LD1, LD2, LD3, LD4 and LD5 in the form of ammonium sulfate suspensions were used for these examples.
(§2) The assay for LDH activity in both the absence and presence of surfactant was conducted as follows. […] The resulting solution contains approximately 5 units/ml. […] To the equilibrated solution […]. of the enzyme solution was added, and the cuvette was rapidly shaken while covering the top of the cuvette with a small piece of Parafilm® and placed back into the spectrophotometer.
(§3) Amphiphile solutions were prepared by weighing out a given amount of amphiphile, e.g., 100 mg, and preparing a stock solution in 30 mM sodium phosphate buffer in 100 ml. volumetric flask. Solutions of lower amphiphile concentration were prepared by making the appropriate dilutions from the stock solution.

LD5 [3] = assay: LDH activity assay with amphiphile, LDH isoenzymes; assay type: biochemical, porcine; settings: even at 10 mM; LD5 from rabbit and hog show almost identical profiles; FIG. 5
Experimental: as §1, §2, §3

LD1 [4] = molecular target: T1, LD1 (Sus scrofa, UniProt P00336); assay: Effect of cationic amphiphiles on the activity of LDH isoenzymes (Table 1); assay type: biochemical; settings: 30 mM sodium phosphate buffer pH 7.4, 25° C.; for IC50: read-out: Amphiphile conc. Req'd for 50% Inactivation of Specified Isoenzyme (LD1)
Experimental: as §2, §3
A number of cationic amphiphiles were investigated for specific inactivation of LD1 in the presence of LD5 and these compounds are listed in Table 1.

mMDH = molecular target: T2, mMDH (Sus scrofa, UniProt P00346); assay: Assay for MDH (oxalacetic acid + NADH, 340 nm); assay type: biochemical, porcine
T2 construct: Porcine cMDH and mMDH were used as ammonium sulfate suspensions
T2 sequence (P00346 25-338): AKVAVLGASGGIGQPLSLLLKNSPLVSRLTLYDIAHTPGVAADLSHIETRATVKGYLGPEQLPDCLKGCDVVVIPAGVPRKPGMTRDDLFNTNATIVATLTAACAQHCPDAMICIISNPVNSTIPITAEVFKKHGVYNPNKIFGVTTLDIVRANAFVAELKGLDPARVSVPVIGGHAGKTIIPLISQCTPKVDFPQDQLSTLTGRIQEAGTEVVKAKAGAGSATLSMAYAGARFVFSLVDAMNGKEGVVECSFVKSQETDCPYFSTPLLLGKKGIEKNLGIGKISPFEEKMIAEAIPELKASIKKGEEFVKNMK
Experimental: (§4) 1. Porcine cMDH and mMDH were used as ammonium sulfate suspensions. Typically, 5 μl of the enzyme stock solutions were diluted to 10 ml with 30 mM phosphate buffer, pH 7.4, prior to use. The resulting enzyme solutions were stored in ice water; 100 μl aliquots were withdrawn for assay except where another amount is specified.
(§5) The assay is based on conversion of oxalacetic acid to malate in the presence of NADH and MDH. The assay was made [formula] in 30 mM phosphate buffer, at ambient temperature, with and without appropriate surfactant concentrations, and contained 0.17 mM OAA and 0.13 mM NADH. The reaction was followed by monitoring the decrease in absorbance at 340 nm using either a Beckman 25 or Cary 118 spectrophotometer. The OAA solutions were stored over ice to prevent hydrolysis to pyruvic acid.

cMDH = molecular target: T3, cMDH (Sus scrofa, UniProt P11708); assay: Assay for MDH (oxalacetic acid + NADH, 340 nm); assay type: biochemical, porcine
T3 construct: Porcine cMDH and mMDH were used as ammonium sulfate suspensions
Experimental: as §4, §5

human LD1, LD2 and LD3 = assay: LDH assay with human serum sample containing LD1, LD2 and LD3; assay type: biochemical; settings: CTAB 0.002-0.004 M; 25 μl serum; FIG. 13
Experimental: as §2
(§6) Pooled human serum, kept frozen until ready for use, was raised to pH 11.5 until all LDH activity was destroyed. The pH was then adjusted to 7.4 and the serum was again assayed for LDH activity to ensure that no LDH had been reactivated. A specific human LDH isoenzyme (obtained from liver homogenate or red blood cell) was then added to the pool to give an enzyme concentration of ~100 U/l. The spiked serum samples were refrigerated between uses and respiked when necessary. Fresh serum was prepared weekly.
(§7) 8. The assay method used is the same as described above for Examples 1-12, except that the test samples consisted of 25-30 μl of serum instead of 100 μl of aqueous enzyme solution.

LD5 [5] = molecular target: LD5 (Sus scrofa, UniProt P00339); assay: LDH activity assay with amphiphile, LDH isoenzymes; assay type: biochemical, porcine; parameters: LD5 from two different species, i.e., rabbit muscle and hog muscle; from tissue; host or cells: hog muscle
Experimental: as §1, §2, §3

LD1 and LD5 = assay: Screening of amphiphiles for ability to discriminate between LD1 and LD5; settings: for Effectiveness (LDH isoenzyme inhibition specificity, LD1 vs LD5): range of amphiphile concentrations, relative activity vs buffer
Experimental: A series of solutions was prepared covering a range of concentrations for each amphiphile to be tested. The activities of both LD1 and LD5 were determined in the presence of the various concentrations of each amphiphile and compared with enzyme activities in buffer (relative activity).
Enzyme activity in the presence and absence of amphiphile was measured by the following procedure: Stock solutions of NADH (4 mM) and pyruvate (40 mM) were prepared daily in 30 mM sodium phosphate buffer, pH 7.4. Enzyme solutions were prepared daily by withdrawing 5 μl of the stock enzyme solutions with a Hamilton syringe and diluting to 5 ml with 30 mM sodium phosphate buffer. (The resulting solution contains approximately 5 U of enzyme/ml.) The enzyme assay was run by pipetting 2.7 ml of buffer or buffer surfactant solution into a 10 mm path length quartz cuvette, and 100 μl each of NADH and pyruvate stock solutions were added. […] Enzyme solution was added with good mixing; the absorbance decrease at 340 nm was measured as a function of time. The rate of the reaction was determined by measuring the slope of the initial absorbance decrease, i.e., within the first 50 seconds of the reaction.

human LD1 = molecular target: T4, human LD1 (Homo sapiens, UniProt P07195); assay: LDH assay with human enzyme-containing serum; assay type: biochemical; settings: 2.5 mM CTAB; pH 7.8; 14% protein
T4 construct: A specific human LDH isoenzyme (obtained from liver homogenate or red blood cell); from tissue; host or cells: human liver homogenate or red blood cell
Experimental: as §2, §6, §7

human LD5 [6] = assay: LDH assay with human enzyme-containing serum; assay type: biochemical; settings: pH 7.4; FIG. 15
Experimental: as §2, §6, §7

human LD4 = molecular target: T5, human LD4 (Homo sapiens, UniProt P00338+P07195); assay: LDH assay with human enzyme-containing serum; assay type: biochemical
T5 construct: A specific human LDH isoenzyme (obtained from liver homogenate or red blood cell); from tissue; host or cells: human liver homogenate or red blood cell
Experimental: as §2, §6, §7

human LD2 = molecular target: T6, human LD2 (Homo sapiens, UniProt P00338+P07195); assay: LDH assay with human enzyme-containing serum; assay type: biochemical; settings: 2.5 mM CTAB; pH 7.8; 14% protein
T6 construct: A specific human LDH isoenzyme (obtained from liver homogenate or red blood cell); from tissue; host or cells: human liver homogenate or red blood cell
Experimental: as §2, §6, §7

human LD5 [7] = molecular target: T7, human LD5 (Homo sapiens, UniProt P00338); assay: LDH assay with human enzyme-containing serum; assay type: biochemical
T7 construct: A specific human LDH isoenzyme (obtained from liver homogenate or red blood cell); from tissue; host or cells: human liver homogenate or red blood cell
Experimental: as §2, §6, §7

LD3 = molecular target: T8, LD3 (Sus scrofa, UniProt P00336+P00339); assay: LDH activity assay with amphiphile, LDH isoenzymes; assay type: biochemical, porcine
T8 construct: porcine LDH, LD1, LD2, LD3, LD4 and LD5 in the form of ammonium sulfate suspensions
Experimental: as §1, §2, §3

LD4 = molecular target: T9, LD4 (Sus scrofa, UniProt P00336+P00339); assay: LDH activity assay with amphiphile, LDH isoenzymes; assay type: biochemical, porcine
T9 construct: porcine LDH, LD1, LD2, LD3, LD4 and LD5 in the form of ammonium sulfate suspensions
Experimental: as §1, §2, §3

LD2 = molecular target: T10, LD2 (Sus scrofa, UniProt P00336+P00339); assay: LDH activity assay with amphiphile, LDH isoenzymes; assay type: biochemical, porcine
T10 construct: porcine LDH, LD1, LD2, LD3, LD4 and LD5 in the form of ammonium sulfate suspensions
Experimental: as §1, §2, §3

LD1 [8] = molecular target: T1, LD1; assay: LDH activity assay with amphiphile, LDH isoenzymes; assay type: biochemical, porcine; parameters: porcine LDH, LD1, LD2, LD3, LD4 and LD5 in the form of ammonium sulfate suspensions
Experimental: as §1, §2, §3

[9] = molecular target: T11, LDH isoenzymes (LD5 in the presence of LD1) (Oryctolagus cuniculus, UniProt P13491); assay: Anionic amphiphiles tested for specific interaction with LDH isoenzymes (Table 2); assay type: biochemical
T11 construct: LD1 (LDHB tetramer) only as comparison
Experimental: as §2, §3
A number of anionic amphiphiles were investigated for specific inactivation of LD5 in the presence of LD1 and these compounds are listed in Table 2.

[10] = rate measurements after 2 minutes, FIG. 18
[11] = 2.5 mM CTAB, pH 7.8, 14% protein

SMILES: CCCCCCCCCCCCCCCC[N+](C)(C)C.[Br-] [CTAB, hexadecyltrimethylammonium bromide]
- discriminatory effect on the activities of the isoenzymes of CPK [1]: do not appear to have any discriminatory effect
- LD1 susceptibility to inactivation at high surfactant concentrations (LD1 [2]): less susceptible to inactivation
- control LD5 activity lost in CTAB solutions (LD5 [3]): No more than 30%
- IC50 (LD1 [4]): 0.9 mM
- remaining activity at 300 µM (mMDH; pH 7.4, 0.3 mM CTAB, initial reaction rates, FIG. 16, read-out: mMDH activity relative to a buffer control): 100%
- effect on mMDH with increased exposure time (mMDH; [10]): no effect
- cMDH activity (cMDH; 0.3 mM CTAB, initial reaction rates, FIG. 16): essentially completely inactivated
- cMDH inactivation with increased exposure time (cMDH; [10]): more effectively inactivates cMDH
- activity of human serum sample containing LD1, LD2 and LD3 (human LD1, LD2 and LD3): completely inactivated
- activity at 275 µM (LD5 [5]; pH 7.4, read-out: activity of LD5 in CTAB, % of the buffer value): 90 to 95%
- discrimination of LDH isoenzymes (LD1 and LD5): excellent discriminators
- human LD1 activity (human LD1): completely inactivated
- discrimination between human LD5 and LD4 (human LD5 [6]): inadequate discrimination
- human LD4 activity (human LD4; [11]): fully active
- human LD4 activity (human LD4; 3 mM CTAB in 14% protein, pH 7.75-7.85, 30 μl serum): completely inactivated
- human LD2 activity (human LD2): completely inactivated
- human LD5 activity (human LD5 [7]; [11]): fully active
- retained activity of human LD5 (human LD5 [7]; CTAB 0.002-0.004 M, 25 μl serum, FIG. 13): at least 60%
- activity at 3000 µM (human LD5 [7]; read-out: human LD5 activity): > 100%

SMILES: CCCCCCCCCCCCCCCCCCNC(=O)CC(C(=O)O)S(=O)(=O)O (stereo not shown) [Disodium N-octadecylsulfosuccinamate]
- Effectiveness (LDH isoenzyme inhibition specificity, LD1 vs LD5) (LD1 and LD5): ++

SMILES: CCCCCCCCCCCCN [Dodecylamine . HCl]
- IC50 (LD1 [4]): 13 mM
- Effectiveness (LDH isoenzyme inhibition specificity, LD1 vs LD5) (LD1 and LD5): ++

SMILES: CCCCCCCCCCCC[N+](C)(C)C.[Br-] [Dodecyltrimethylammonium bromide]
- IC50 (LD1 [4]): 10 mM
- Effectiveness (LDH isoenzyme inhibition specificity, LD1 vs LD5) (LD1 and LD5): -

SMILES: CC[n+]1ccccc1.[Br-] [N-Ethylpyridinium bromide]
- Amphiphile conc. Req'd for 50% Inactivation of Specified Isoenzyme (LD1) (LD1 [4]): no effect

SMILES: CCCCCCCCCCCCCCCC(=O)NCCC[N+](C)(C)CCO.[Cl-] [N-β-hydroxyethyl-N,N-dimethyl-N-3-palmitamidopropylammonium chloride]
- effect on LD3 activity (LD3; FIG. 11): inactivated mostly
- retention of LD4 activity (LD4; FIG. 11): ~ 60%
- effect on LD2 activity (LD2; FIG. 11): inactivated mostly
- effect on LD1 activity (LD1 [8]; FIG. 11): inactivated mostly
- retention of LD5 activity (LD5 [5]; FIG. 11): 90%
- Effectiveness (LDH isoenzyme inhibition specificity, LD1 vs LD5) (LD1 and LD5): ++

SMILES: CCCCCCCCC[N+](C)(C)C [Nonatrimethylammonium bromide]
- IC50 (LD1 [4]): 0.35 mM
- Effectiveness (LDH isoenzyme inhibition specificity, LD1 vs LD5) (LD1 and LD5): -

SMILES: CCCCCCCCCCCCOS(=O)(=O)[O-].[Na+] [SDS, sodium dodecylsulfate]
- remaining activity at 1500 µM (LD3; pH 7.4, read-out: LD3 activity remaining): 50%
- LD4 activity (LD4; 1.5 mM SDS, FIG. 9): nil
- activity at 3500 µM (LD2; pH 7.4, read-out: LD2 activity): 0%
- remaining activity at 1500 µM (LD2; pH 7.4, read-out: LD2 activity remaining): 65%
- remaining activity at 1500 µM (LD1 [8]; pH 7.4, read-out: LD1 activity remaining): 95%
- remaining activity at 3500 µM (LD1 [8]; pH 7.4, read-out: LD1 activity, % of buffer control): 78%
- LD5 activity (LD5 [5]; 1.5 mM SDS, FIG. 9): nil
- Effectiveness (LDH isoenzyme inhibition specificity, LD1 vs LD5) (LD1 and LD5): ++
- Interaction (specific inactivation of LD5 in the presence of LD1) [9]: useful positive results
- Interaction (specific inactivation of LD5 in the presence of LD1) ([9]; listed as sodium dodecylsulfate): specific

SMILES: CCCCCCCC/C=C\CCCCCCCC(=O)N(C)CCS(=O)(=O)O [Sodium N-methyl-N-oleoyl taurate]
- Effectiveness (LDH isoenzyme inhibition specificity, LD1 vs LD5) (LD1 and LD5): 0

SMILES: CCCCOS(=O)(=O)[O-].[Na+] [Sodium butyl sulfate]
- Effectiveness (LDH isoenzyme inhibition specificity, LD1 vs LD5) (LD1 and LD5): 0

SMILES: C[C@H](CCC(=O)O)[C@H]1CC[C@H]2[C@@H]3C(=O)C[C@@H]4CC(=O)CC[C@]4(C)[C@H]3CC(=O)[C@]12C [Sodium dehydrocholate]
- Effectiveness (LDH isoenzyme inhibition specificity, LD1 vs LD5) (LD1 and LD5): 0
